Assay results reported in article PMC10709440, “High-throughput ligand profile characterization in novel cell lines expressing seven heterologous insect olfactory receptors for the detection of volatile plant biomarkers” (Scientific Reports, 2023).
Where two headings read alike, the source gives them in different places.

What was measured:
[1] = target: T1, Drosophila OR10a (Drosophila melanogaster, UniProt Q9VYZ1); assay: Calcium ion fluorescence (GCaMP6) assay, OR10a stable HEK293 cell line; assay type: cell-based
T1 construct: expressed in transfected cells
T1 sequence (Q9VYZ1 1-406): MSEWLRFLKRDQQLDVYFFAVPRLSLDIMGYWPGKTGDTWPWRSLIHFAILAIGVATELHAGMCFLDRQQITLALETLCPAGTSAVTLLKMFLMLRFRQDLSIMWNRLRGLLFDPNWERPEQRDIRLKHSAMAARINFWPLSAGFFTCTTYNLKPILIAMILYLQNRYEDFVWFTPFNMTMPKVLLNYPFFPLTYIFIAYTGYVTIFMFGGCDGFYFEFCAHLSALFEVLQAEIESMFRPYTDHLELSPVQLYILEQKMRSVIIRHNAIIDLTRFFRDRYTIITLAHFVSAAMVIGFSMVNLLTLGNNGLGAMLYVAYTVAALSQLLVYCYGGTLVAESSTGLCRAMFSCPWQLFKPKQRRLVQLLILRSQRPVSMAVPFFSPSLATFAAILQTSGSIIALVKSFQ
T1 sequence (Q9VNB5 1-486 partner): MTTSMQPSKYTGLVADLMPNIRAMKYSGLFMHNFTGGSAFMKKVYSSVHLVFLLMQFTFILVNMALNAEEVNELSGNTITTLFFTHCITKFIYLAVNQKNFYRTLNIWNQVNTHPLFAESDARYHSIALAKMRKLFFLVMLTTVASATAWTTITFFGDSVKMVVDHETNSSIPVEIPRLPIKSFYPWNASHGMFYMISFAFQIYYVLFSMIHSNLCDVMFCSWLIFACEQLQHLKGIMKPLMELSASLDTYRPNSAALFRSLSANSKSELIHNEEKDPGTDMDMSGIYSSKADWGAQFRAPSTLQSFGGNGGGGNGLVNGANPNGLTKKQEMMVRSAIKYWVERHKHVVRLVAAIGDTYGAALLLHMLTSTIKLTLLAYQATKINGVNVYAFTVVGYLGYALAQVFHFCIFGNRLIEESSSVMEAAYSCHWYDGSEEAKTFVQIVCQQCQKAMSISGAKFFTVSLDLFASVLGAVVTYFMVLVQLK
Procedure: (§1) These VUAA1 normalized ∆F values were used to compare the different receptors and ligands.
(§2) The concentration-dependent effect of the reference ligands on their cognate cell lines was examined in more detail. Twelve different ligand concentrations were measured on each cell line in an overall 0.01 μM to 100 μM concentration range with 5 repetitions with three technical replicates each time.
(§3) Twelve thousand to 18,000 cells were plated into each well of a black wall, transparent bottom 384-well microplate (Greiner) 48 h or 72 h before the measurements and were simultaneously treated with 1 μg/mL doxycycline. […] The plate has 24 columns, thus we could record responses in up to eight different cell lines in each plate. On the day of the experiment, the growth medium was replaced with 20 µL assay buffer/well (140 mM NaCl, 5 mM KCl, 2 mM CaCl2, 1 mM MgCl2, 5 mM HEPES-Na, 20 mM glucose, pH 7.3, 340 mOsm). […] Baseline fluorescence (F0) was recorded for 5 s, after which 7 µL VOC buffer (140 mM NaCl, 5 mM KCl, 2 mM CaCl2, 1 mM MgCl2, 5 mM HEPES-Na, 31 mM glucose, 0.1% DMSO, pH 7.3, 340 mOsm) was injected into each well in one row and the fluorescence response was recorded for an additional 30 s, at a rate of one read/sec. VOC solutions (VOC buffer with 4× concentration of the final measured VOC concentration, 9 µL/well was injected) were measured on the same wells in a second round with the same protocol. Each individual concentration of a specific VOC sample was recorded in three wells for the same cell line on the same microplate. The raw data were exported in xls file format, F0 and FMAX values, and the fluorescence intensity changes (∆F) were calculated in Excel (Microsoft) (Supplementary file Data summary.xlsx) using the following equation: ΔF=FMAX-F0/F0 (see also Fig. 1C). On each plate, we recorded the response of each cell line to 50 µM VUAA1. The average of these ∆F values of each cell line were used to calculate the VUAA1-normalized values for the rest of the plate, by dividing VOC response ∆F values by the average VUAA1 response ∆F value of the corresponding OR cell line. Each VOC-OR combination was measured three times as technical replicates. […] The average of these replicates were used as one ∆F and VUAA1-normalized ∆F in the following analysis.
(§4) In the next rows we tested the reference VOCs (or other VOCs known to activate the corresponding cell lines), in order to test if all cell lines are responsive. The remaining rows were used to test VOCs with unknown effect.
(§5) The recorded FMAX, F0, ∆F, VUAA1-normalized ∆F values, as well as the OR name, the name of the tested sample, and the final concentration for each well were copied into supplementary file Data summary.xlsx, that was used to summarize all the plates recorded. Here, the averages of the measurements were calculated for each receptor-VOC-concentration combination.

[2] = target: T2, Drosophila OR13a (Drosophila melanogaster, UniProt Q9VXL0); assay: Calcium ion fluorescence (GCaMP6) assay, OR13a stable HEK293 cell line; assay type: cell-based; conditions: for DF norm AVERAGE OR13a: normalized fluorescence change, values below 0.05 threshold given as 0
T2 construct: expressed in transfected cells
T2 sequence (Q9VXL0 1-418): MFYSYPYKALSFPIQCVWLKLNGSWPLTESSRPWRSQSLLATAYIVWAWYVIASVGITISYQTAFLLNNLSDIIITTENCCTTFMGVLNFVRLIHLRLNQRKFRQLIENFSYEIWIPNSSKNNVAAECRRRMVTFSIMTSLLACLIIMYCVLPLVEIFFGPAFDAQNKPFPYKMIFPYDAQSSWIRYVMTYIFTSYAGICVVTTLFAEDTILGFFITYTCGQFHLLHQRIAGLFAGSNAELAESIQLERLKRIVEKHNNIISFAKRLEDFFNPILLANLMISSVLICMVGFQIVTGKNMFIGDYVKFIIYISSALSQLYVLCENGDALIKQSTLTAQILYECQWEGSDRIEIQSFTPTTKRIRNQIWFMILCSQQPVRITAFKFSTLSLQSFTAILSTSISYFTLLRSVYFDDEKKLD
T2 sequence (Q9VNB5 1-486 partner): T1 sequence (Q9VNB5 1-486 partner)
Procedure: as §1, §2, §3, §4, §5

[3] = 1 μM VOC, 50 μM VUAA1 = 1, responses not exceeding 0.05 considered 0
[4] = 10 μM VOC, 50 μM VUAA1 = 1, responses not exceeding 0.05 considered 0
[5] = 100 μM VOC, 50 μM VUAA1 = 1, responses not exceeding 0.05 considered 0

In the case of CC1=CCC[C@@]2(C)[C@@H]3CC[C@]12CC3(C)C [(−)-α-neoclovene], the “OR10a Average response (VUAA1-normalized)” value [1, 3] is reported as 0.00, the “OR10a Average response (VUAA1-normalized)” value [1, 4] is reported as 0.13 and the “OR10a Average response (VUAA1-normalized)” value [1, 5] is reported as 0.12. The “OR10a response (VUAA1-normalized response)” value ([1]; VOC concentration 1 μM) was 0.00, the “OR10a response (VUAA1-normalized response)” value ([1]; VOC concentration 10 μM) was 0.13 and the “OR10a response (VUAA1-normalized response)” value ([1]; VOC concentration 100 μM) was 0.12. For the same molecule, the “OR13a Average response (VUAA1-normalized)” value [2, 3] was 0.0436, the “OR13a Average response (VUAA1-normalized)” value [2, 4] was 0.00 and the “OR13a Average response (VUAA1-normalized)” value [2, 5] was 0.00. For the same molecule, the “OR13a response (VUAA1-normalized response)” value ([2]; VOC concentration 1 μM) was 0.00, the “OR13a response (VUAA1-normalized response)” value ([2]; VOC concentration 10 μM) was 0.00 and the “OR13a response (VUAA1-normalized response)” value ([2]; VOC concentration 100 μM) was 0.00. For the same molecule, the “DF norm AVERAGE OR13a” value ([2]; concentration 1) was 0, the “DF norm AVERAGE OR13a” value ([2]; concentration 10) was 0 and the “DF norm AVERAGE OR13a” value ([2]; concentration 100) was 0.

Molecule Cc1ccc(O)cc1 [4-methylphenol] has an activation at 1 µM ([1]; HEK293, 1 μM VOC, 50 μM VUAA1 = 1, responses not exceeding 0.05 considered 0, read-out: OR10a Average response (VUAA1-normalized)) of 2.37%, an activation at 10 µM ([1]; HEK293, 10 μM VOC, 50 μM VUAA1 = 1, responses not exceeding 0.05 considered 0, read-out: OR10a Average response (VUAA1-normalized)) of 1.81% and an activation at 100 µM ([1]; HEK293, 100 μM VOC, 50 μM VUAA1 = 1, responses not exceeding 0.05 considered 0, read-out: OR10a Average response (VUAA1-normalized)) of 6.62%. It also gave an activation at 1 µM ([1]; HEK293, read-out: OR10a response (VUAA1-normalized response), VOC concentration 1 μM) of 0%, an activation at 10 µM ([1]; HEK293, read-out: OR10a response (VUAA1-normalized response), VOC concentration 10 μM) of 0% and an activation at 100 µM ([1]; HEK293, read-out: OR10a response (VUAA1-normalized response), VOC concentration 100 μM) of 6.62%. It also gave an activation at 1 µM ([2]; HEK293, read-out: OR13a Average response (VUAA1-normalized), 1 μM VOC, 50 μM VUAA1 = 1, responses not exceeding 0.05 considered 0) of 4.62%, an activation at 10 µM ([2]; HEK293, read-out: OR13a Average response (VUAA1-normalized), 10 μM VOC, 50 μM VUAA1 = 1, responses not exceeding 0.05 considered 0) of 2% and an activation at 100 µM ([2]; HEK293, read-out: OR13a Average response (VUAA1-normalized), 100 μM VOC, 50 μM VUAA1 = 1, responses not exceeding 0.05 considered 0) of 1.38%. The activation at 1 µM ([2]; HEK293, read-out: OR13a response (VUAA1-normalized response), VOC concentration 1 μM) was 0%, the activation at 10 µM ([2]; HEK293, read-out: OR13a response (VUAA1-normalized response), VOC concentration 10 μM) was 0% and the activation at 100 µM ([2]; HEK293, read-out: OR13a response (VUAA1-normalized response), VOC concentration 100 μM) was 0%. For the same molecule, the “DF norm AVERAGE OR13a” value ([2]; concentration 1) was 0, the “DF norm AVERAGE OR13a” value ([2]; concentration 10) was 0 and the “DF norm AVERAGE OR13a” value ([2]; concentration 100) was 0.
